Data on 61 compounds can be found in patent US8163753B2, “2,3-dihydro-6-nitroimidazo (2,1-b) oxazole compounds for the treatment of tuberculosis” (priority 2003, dated 2012).

The compound `C[C@]1(COc2ccc(CN3CCC(Cc4ccc(OC(F)(F)F)cc4)CC3)cc2)Cn2cc([N+](=O)[O-])nc2O1` displayed a melting point of 172.5 to 174.1 °C.
Take `O=[N+]([O-])c1cn2c(n1)OC(COc1ccc(N3CCC(Cc4ccc(OC(F)(F)F)cc4)CC3)cc1)C2` (stereo not shown): the melting point lay in the range of 132.7 to 135 °C.
`C[C@]1(COc2ccc(N3CCC(Oc4ccc(OC(F)(F)F)cc4)CC3)nc2)Cn2cc([N+](=O)[O-])nc2O1` displayed a melting point of 185.9 to 186.7 °C.
`C[C@]1(COc2ccc(-c3ccc(N4CCN(Cc5ccc(Cl)cc5)CC4)cc3)cc2)Cn2cc([N+](=O)[O-])nc2O1`: the melting point was 247.8 to 248.5 °C (dec.).
Turning to `C[C@]1(COc2ccc(N3CCC(CCc4ccc(OC(F)(F)F)cc4)CC3)cc2)Cn2cc([N+](=O)[O-])nc2O1`, the melting point fell in the range of 239.4 to 241.3 °C.
Regarding `C[C@]1(COc2ccc(N3CCC(OCc4ccc(C(F)(F)F)cc4)CC3)cc2)Cn2cc([N+](=O)[O-])nc2O1`, the melting point was in the range of 217.4 to 219.7 °C.
`CN(Cc1ccc(C(F)(F)F)cc1F)C1CCN(c2ccc(OC[C@@]3(C)Cn4cc([N+](=O)[O-])nc4O3)cc2)CC1` returned a melting point of 197.5 to 199.2 °C.
For the compound `CN(c1ccc(OC(F)(F)F)cc1)C1CCN(C2CCN(c3ccc(OC[C@@]4(C)Cn5cc([N+](=O)[O-])nc5O4)cc3)CC2)CC1`, the melting point lay within 196 to 197 °C.
`CN(Cc1ccccc1C(F)(F)F)C1CCN(c2ccc(OC[C@@]3(C)Cn4cc([N+](=O)[O-])nc4O3)cc2)CC1` gave a melting point of 189.6 to 190.2 °C.
Compound `C[C@]1(COc2ccc3nc(Cl)ccc3c2)Cn2cc([N+](=O)[O-])nc2O1` registered a melting point of 182.2 to 184.7 °C.
To `O=[N+]([O-])c1cn2c(n1)OC(COc1ccc(N3CCC(COCc4ccc(C(F)(F)F)cc4)CC3)cc1)C2` (stereo not shown) belongs 140.2 to 141.7 °C; to `CC1(Cc2ccc(N3CCC(Oc4ccc(OC(F)(F)F)cc4)CC3)cc2)Cn2cc([N+](=O)[O-])nc2O1` (stereo not shown), 184.9 to 186.8 °C.
To `CN(c1ccc(OC[C@@]2(C)Cn3cc([N+](=O)[O-])nc3O2)cc1)C1CCN(c2ccc(OC(F)(F)F)cc2)CC1` belongs 137.9 to 139.2 °C; to `O=[N+]([O-])c1cn2c(n1)O[C@@H](COc1ccc(N3CCC(COCc4ccc(OC(F)(F)F)cc4)CC3)cc1)C2`, 140.4 to 141.7 °C.
As for `C[C@]1(COc2ccc(N3CCC(COC(=O)Nc4ccc(OC(F)(F)F)cc4)CC3)cc2)Cn2cc([N+](=O)[O-])nc2O1`, the melting point was 211.6 to 212 °C (dec.).
On to `C[C@]1(COc2ccc(N3CCC(N4CCN(c5ccc(Cl)cc5)CC4)CC3)cc2)Cn2cc([N+](=O)[O-])nc2O1`, for which the melting point is 247 to 249 °C.
`CN(c1ccc(Cl)cc1)C1CCN(C2CCN(c3ccc(OC[C@@]4(C)Cn5cc([N+](=O)[O-])nc5O4)cc3)CC2)CC1`: the melting point lay within 230.8 to 232 °C.
To `C[C@]1(COc2ccc(N3CCN(CC=Cc4ccc(C(F)(F)F)cc4)CC3)cc2)Cn2cc([N+](=O)[O-])nc2O1` belongs 199.7 to 202 °C; to `CN(CC1CCN(c2ccc(OC(F)(F)F)cc2)CC1)c1ccc(OC[C@@]2(C)Cn3cc([N+](=O)[O-])nc3O2)cc1`, 172.5 to 175.2 °C.
As to `C[C@]1(COc2ccc(N3CCN(Cc4csc(-c5ccc(C(F)(F)F)cc5)n4)CC3)cc2)Cn2cc([N+](=O)[O-])nc2O1`, the melting point lay in the range of 210 to 212.1 °C.
For the compound `CN(CC=Cc1ccc(OC(F)(F)F)cc1)C1CCN(c2ccc(OC[C@@]3(C)Cn4cc([N+](=O)[O-])nc4O3)cc2)CC1`, the melting point was in the range of 213 to 214.9 °C.
To `O=[N+]([O-])c1cn2c(n1)O[C@@H](COc1ccc(N3CCC(Cc4ccc(OC(F)(F)F)cc4)CC3)cc1)C2` belongs 160.5 to 164 °C.
In the case of `O=[N+]([O-])c1cn2c(n1)O[C@@H](COc1ccc(N3CCC(OCc4ccc(OC(F)(F)F)cc4)CC3)cc1)C2`, the melting point was 188.3 to 189.4 °C.
For `C[C@]1(COc2ccc(N3CCCN(c4ccc(OC(F)(F)F)cc4)CC3)cc2)Cn2cc([N+](=O)[O-])nc2O1` the value was 134 to 137.9 °C; for `C[C@]1(COc2ccc(-c3nc(-c4ccc(Cl)cc4)co3)cc2)Cn2cc([N+](=O)[O-])nc2O1`, 248.8 to 251.5 °C; for `C[C@]1(COc2ccc(N3CCN(CC=Cc4ccc(Cl)c(Cl)c4)CC3)cc2)Cn2cc([N+](=O)[O-])nc2O1`, 204.7 to 206.4 °C.
Take `C[C@]1(COc2ccc(-c3ccc(N4CCN(Cc5ccc(Cl)c(Cl)c5)CC4)cc3)cc2)Cn2cc([N+](=O)[O-])nc2O1`: the melting point was 222.6 to 225.1 °C (dec.).
For `C[C@]1(COc2ccc(N3CCC(COc4ccc(CCl)cc4)CC3)cc2)Cn2cc([N+](=O)[O-])nc2O1`, the melting point is 140.4 to 141.7 °C.
Take `C[C@]1(COc2ccc(N3CCC(COC4CCCCO4)CC3)cc2)Cn2cc([N+](=O)[O-])nc2O1` (stereo partly shown): the melting point lay within 217.6 to 218.6 °C.
The compound `CN(CCCOc1ccc(OC(F)(F)F)cc1)C1CCN(c2ccc(OC[C@@]3(C)Cn4cc([N+](=O)[O-])nc4O3)cc2)CC1` had a melting point of 167.4 to 170.2 °C.
The compound `CCCc1ccc(NC2CCN(c3ccc(OC[C@@]4(C)Cn5cc([N+](=O)[O-])nc5O4)cc3)CC2)cc1` displayed a melting point of 222 to 223 °C.
As for `C[C@]1(COc2ccc(N3CCC(N4CCN(c5ccc(OC(F)(F)F)cc5)CC4)CC3)cc2)Cn2cc([N+](=O)[O-])nc2O1`, the melting point is 279 to 281 °C.
With `CN(Cc1cc2cc(Cl)ccc2o1)C1CCN(c2ccc(OC[C@@]3(C)Cn4cc([N+](=O)[O-])nc4O3)cc2)CC1`, the melting point fell in the range of 207.4 to 210 °C.
For the compound `CC1(COc2ccc(N3CCC(Cc4ccc(OC(F)(F)F)cc4)CC3)cc2)Cn2cc([N+](=O)[O-])nc2O1` (stereo not shown), the melting point fell in the range of 180.9 to 182.7 °C.
As for `CN(Cc1ccc(N(C)CC=Cc2ccc(C(F)(F)F)cc2)cc1)C[C@@]1(C)Cn2cc([N+](=O)[O-])nc2O1`, the melting point lay in the range of 153.5 to 154.5 °C.
Regarding `C[C@]1(COc2ccc3nc(N4CCC(=Cc5ccc(OC(F)(F)F)cc5)CC4)ccc3c2)Cn2cc([N+](=O)[O-])nc2O1`, the melting point lay in the range of 193.9 to 195.9 °C.
On to `C[C@]1(COc2ccc(N3CCC(Nc4cc(Cl)cc(Cl)c4)CC3)cc2)Cn2cc([N+](=O)[O-])nc2O1`, for which the melting point was in the range of 122 to 124 °C.
Consider `C[C@]1(COc2ccc3c(c2)nc(N2CCN(Cc4ccc(OC(F)(F)F)cc4)CC2)n3Cc2ccccc2)Cn2cc([N+](=O)[O-])nc2O1`, for which the melting point fell in the range of 101.3 to 104 °C.
On to `CC1(COc2ccc3nc(N4CCN(Cc5ccc(OC(F)(F)F)cc5)CC4)sc3c2)Cn2cc([N+](=O)[O-])nc2O1` (stereo not shown), for which the melting point is 172.6 to 174.6 °C.
`C[C@]1(COc2ccc(N3CCC(OCC=Cc4ccc(OC(F)(F)F)cc4)CC3)cc2)Cn2cc([N+](=O)[O-])nc2O1` had a melting point of 213.7 to 217.4 °C.
In turn, `C[C@]1(COc2ccc(N3CCC(Nc4ccc(Cl)c(Cl)c4)CC3)cc2)Cn2cc([N+](=O)[O-])nc2O1` returned a melting point of 146 to 147.4 °C.
In turn, `CCCc1ccc(N(C)C2CCN(c3ccc(OC[C@@]4(C)Cn5cc([N+](=O)[O-])nc5O4)cc3)CC2)cc1` had a melting point of 198 to 199 °C.
The compound `C[C@]1(COc2ccc(N3CCC(CCOCc4ccc(OC(F)(F)F)cc4)CC3)cc2)Cn2cc([N+](=O)[O-])nc2O1` had a melting point of 204.8 to 206.7 °C.
As for `C[C@]1(COc2ccc(N3CCC(OCc4ccc(OC(F)(F)F)cc4)CC3)cc2)Cn2cc([N+](=O)[O-])nc2O1`, the melting point was in the range of 214.3 to 217.7 °C.
Take `O=[N+]([O-])c1cn2c(n1)OC(COc1ccc(N3CCC(COc4ccc(Cl)cc4)CC3)cc1)C2` (stereo not shown): the melting point was 191.2 to 192.5 °C.
For `O=[N+]([O-])c1cn2c(n1)O[C@@H](COc1ccc(N3CCC(COc4ccc(C(F)(F)F)cc4)CC3)cc1)C2` the value was 175 to 180 °C; for `CC(C)(C)OC(=O)N1CCCN(c2ccc(-c3ccc(OC[C@@]4(C)Cn5cc([N+](=O)[O-])nc5O4)cc3)cc2)CC1`, 213.8 to 215.7 °C; for `C[C@]1(COc2ccc(N3CCC(CO)CC3)cc2)Cn2cc([N+](=O)[O-])nc2O1`, 171 to 173.8 °C.
`C[C@]1(COc2ccc(N3CCC(COc4ccc(C(F)(F)F)cc4)CC3)cc2)Cn2cc([N+](=O)[O-])nc2O1`: the melting point was 223.2 to 225.2 °C (dec.).
The compound `C[C@]1(COc2ccc(N3CCC(COCc4ccc(C(F)(F)F)cc4)CC3)cc2)Cn2cc([N+](=O)[O-])nc2O1` yielded a melting point of 172.3 to 172.9 °C.
In the case of `C[C@]1(COc2ccc3cc(N4CCC(Oc5ccc(OC(F)(F)F)cc5)CC4)ccc3c2)Cn2cc([N+](=O)[O-])nc2O1`, the melting point is 204.8 to 207.9 °C.
Regarding `CC1(COc2ccc(N3CCC(Cc4ccc(Cl)c(Cl)c4)CC3)cc2)Cn2cc([N+](=O)[O-])nc2O1` (stereo not shown), the melting point lay within 191.4 to 192.1 °C.
`CC1(COc2ccc(N3CCN(CC=Cc4ccc(OC(F)(F)F)cc4)CC3)cc2)Cn2cc([N+](=O)[O-])nc2O1` (stereo not shown) returned a melting point of 181.1 to 182.2 °C.
As to `CC1(COc2ccc(N3CCC(COc4ccc(Cl)cc4)CC3)cc2)Cn2cc([N+](=O)[O-])nc2O1` (stereo not shown), the melting point lay within 190 to 190.4 °C.
Turning to `C[C@]1(COc2ccc(N3CCC(Cc4ccc(Cl)cc4)CC3)cc2)Cn2cc([N+](=O)[O-])nc2O1`, the melting point fell in the range of 207.1 to 211.2 °C.
Regarding `C[C@]1(COc2ccc(C3CCN(CC=Cc4ccc(C(F)(F)F)cc4)CC3)cc2)Cn2cc([N+](=O)[O-])nc2O1`, the melting point lay within 185.9 to 187.1 °C.
`C[C@]1(COc2ccc(N3CCC(CCOCc4ccc(Cl)cc4)CC3)cc2)Cn2cc([N+](=O)[O-])nc2O1`: the melting point was 197.6 to 198.2 °C.
For `C[C@]1(COc2ccc(N3CCN(CCOc4ccc(OC(F)(F)F)cc4)CC3)cc2)Cn2cc([N+](=O)[O-])nc2O1` the value was 194.8 to 195.6 °C.
Consider `CN(CCOc1ccc(OC(F)(F)F)cc1)C1CCN(c2ccc(OC[C@@]3(C)Cn4cc([N+](=O)[O-])nc4O3)cc2)CC1`, for which the melting point fell in the range of 185.7 to 187.7 °C.
For `C[C@]1(COc2ccc(C3CCN(Cc4csc(-c5ccc(C(F)(F)F)cc5)n4)CC3)cc2)Cn2cc([N+](=O)[O-])nc2O1`, the melting point lay within 194.6 to 196.4 °C.
Consider `C[C@]1(COc2ccc(N3CCC(Nc4ccc(Oc5ccc(OC(F)(F)F)cc5)cc4)CC3)cc2)Cn2cc([N+](=O)[O-])nc2O1`, for which the melting point was 198.6 to 201.1 °C (dec.).

In general, melting point refers to the temperature, or range, at which the solid turns liquid.
